Test system: 661W photoreceptors
Assay: Microglia-photoreceptor interaction assay: 661W viability (MTT) in conditioned media of LPS-stimulated BV2 microglia
Details: BV2 pre-treated before LPS 50 ng/ml; 661W exposed 24 h; TMX 3 and 5 μg/ml, raloxifene 0.3-3 μM, G-1 1 μM, GPR30 antagonist 100 nM
Experimental: 661W photoreceptors cultured in 96-well plate (4×10^4 cells/well) were exposed to conditioned media from LPS-stimulated (50 ng/ml) BV2 microglia (cultured in 6-well plate with a cell density of 4×10^5 cells/well) for 48 h. […] Cell viability of 661W photoreceptors were assessed using a MTT assay.
Murine microglial cell line (BV-2) cells and photoreceptor-like cell line (661W) were used in this study. BV-2 cells were plated in 6-well plates at the density of 4×10^5/well and cultured for 24 h in DMEM medium (Life Technologies Corporation, Grand Island, N.Y.) containing 5% heat inactivated FBS (Life Technologies Corporation, Grand Island, N.Y.) at 37° C. in a humidified atmosphere of 5% CO2. […] Cell viability of 661W photoreceptors were assessed using a MTT cell proliferation assay kits (ATCC, Manassas, Va.) following the manufacturer's specifications. […]
661W photoreceptors cultured in 96-well plate (4×10^4 cells/well) were exposed to conditioned media from LPS-stimulated (50 ng/ml) BV2 microglia (cultured in 6-well plate with a cell density of 4×10^5 cells/well) for 24 h. […] Cell viability of 661W photoreceptors were assessed using a MTT assay.

SMILES | neurotoxicity of microglia-conditioned media to 661W photoreceptors (viability, MTT)
CC(=O)c1ccc2c(c1)C1C=CCC1C(c1cc3c(cc1Br)OCO3)N2 (centres unmarked) [G-1] | significantly reduced neurotoxicity
O=C(c1ccc(OCCN2CCCCC2)cc1)c1c(-c2ccc(O)cc2)sc2cc(O)ccc12 [raloxifene, [6-hydroxy-2-(4-hydroxyphenyl)-benzothiophen-3-yl]-[4-[2-(1-piperidyl)ethoxy]phenyl]-methanone] | significantly reduced neurotoxicity
